Like-named read-outs stand apart in the source and are kept apart here.
What was measured:
[1] = system: SW-480 colon adenocarcinoma cells; test: Apoptosis fold induction protocol (DNA fragmentation ELISA); format: cell-based, human; set-up: key to the marks not given beside the values; details: qualitative activity profile
[2] = target: T1, purified cyclooxygenase (Type 1) from ram seminal vesicles (Ovis aries, UniProt P05979); test: COX inhibition assay with purified cyclooxygenase; set-up: COX Inhibition: key to the marks not given beside the values; details: for COX-I inhibition: FIG. 5
T1 sequence (P05979 25-600): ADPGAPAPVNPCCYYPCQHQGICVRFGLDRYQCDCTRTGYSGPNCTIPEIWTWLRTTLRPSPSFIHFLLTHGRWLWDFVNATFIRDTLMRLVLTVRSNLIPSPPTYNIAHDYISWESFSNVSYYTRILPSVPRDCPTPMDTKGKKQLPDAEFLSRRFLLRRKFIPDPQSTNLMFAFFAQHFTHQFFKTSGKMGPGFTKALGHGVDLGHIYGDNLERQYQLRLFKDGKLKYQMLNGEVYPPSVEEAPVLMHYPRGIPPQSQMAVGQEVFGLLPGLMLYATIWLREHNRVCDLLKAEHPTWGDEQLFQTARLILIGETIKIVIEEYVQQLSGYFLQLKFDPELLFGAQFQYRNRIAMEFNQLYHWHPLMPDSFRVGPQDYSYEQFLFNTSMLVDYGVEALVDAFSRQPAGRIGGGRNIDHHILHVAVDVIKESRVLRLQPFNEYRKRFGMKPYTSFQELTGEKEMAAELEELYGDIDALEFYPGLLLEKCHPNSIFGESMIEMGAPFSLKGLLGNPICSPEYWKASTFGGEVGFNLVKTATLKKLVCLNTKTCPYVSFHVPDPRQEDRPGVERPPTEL

[3] = target: T2, cGMP binding sites of GST-cGB-PDE5 fusion protein (Homo sapiens, UniProt O76074); test: cGMP binding assay with GST-cGB-PDE5 fusion protein
T2 construct: made in house; host or cells: E. coli BL21 (DE3)

[4] = target: T3, PDE peak A (PDE5) from SW480 (Homo sapiens, UniProt O76074); test: cGMP hydrolysis by PDE peak A (PDE5) isolated from SW480 cells; format: biochemical
T3 construct: The novel PDE activity was first found in SW480 colon cancer cell lines; endogenous in cells; host or cells: SW480 colon cancer cells; DEAE-Trisacryl M fraction (peak A)

[5] = system: novel cGMP-specific PDE peak B from SW480; test: cGMP hydrolysis by novel cGMP-specific PDE peak B (Section IA) from SW480 cells; format: biochemical, human; details: for Ratio (IC50 Peak A/Peak B): cGMP hydrolysis
[6] = system: premalignant lesions in mouse mammary gland organ culture; test: Mammary gland organ culture model; format: cell-based; details: FIG. 17
Text: Test compounds identified by the above methods can be tested for antineoplastic activity by their ability to inhibit the incidence of pre-neoplastic lesions in a mammary gland organ culture system. This mouse mammary gland organ culture technique has been successfully used by other investigators to study the effects of known antineoplastic agents such as certain NSAIDs, retinoids, tamoxifen, selenium, and certain natural products, and is useful for validation of the screening method of the present invention.
For example, female BALB/c mice can be treated with a combination of estradiol and progesterone daily, in order to prime the glands to be responsive to hormones in vitro. The animals are sacrificed, and thoracic mammary glands are excised aseptically and incubated for ten days in growth media supplemented with insulin, prolactin, hydrocortisone, and aldosterone. DMBA (7,12-dimethylbenz(a)anthracene) is added to medium to induce the formation of premalignant lesions Fully developed glands are then deprived of prolactin, hydrocortisone, and aldosterone, resulting in the regression of the glands but not the pre-malignant lesions.
The test compound is dissolved in DMSO and added to the culture media for the duration of the culture period. At the end of the culture period, the glands are fixed in 10% formalin, stained with alum camine, and mounted on glass slides. The incidence of forming mammary lesions is the ratio of the glands with mammary lesions to […]. The incidence of mammary lesions in test compound treated glands is compared with that of the untreated glands.
The extent of the area occupied by the mammary lesions can be quantitated by projecting an image of the gland onto a digitation pad. The area covered by the gland is traced on the pad and considered as 100% of the area. The space covered by each of the non-regressed structures is also outlined on the digitization pad and quantitated by the computer.
Mammary gland organ culture experiment were performed as previously described (Mehta and Moon, Cancer Research, 46: 5832-5835, 1986). […]

HT-29 cells = test: Cyclic nucleotide (cGMP, cAMP) levels in HT-29 cells by radioimmunoassay; format: cell-based, human; details: for effect on cAMP levels: HT-29 cells
HCT116, Colon = test: Growth inhibition, SRB assay, HCT116; format: cell-based; details: Homo sapiens, HCT-116
Text: (§1) A compound's ability to inhibit tumor cell growth can be measured using the HT-29 human colon carcinoma cell line obtained from ATCC. HT-29 cells have previously been characterized as a relevant colon tumor cell culture model (Fogh, J., and Trempe, G. In. Human Tumor Cells in Vitro, J. Fogh (eds.), Plenum Press, New York, pp. 115-159, 1975). HT-29 cells are maintained in RPMI media supplemented with 5% fetal bovine calf serum (Gemini Bioproducts, Inc., Carlsbad, Calif.) and 2 mm glutamine, and 1% antibiotic-antimycotic in a humidified atmosphere of 95% air and 5% CO2 at 37° C. Briefly, HT-29 cells are plated at a density of 500 cells/well in 96 well microtiter plates and incubated for 24 hours at 37° C. prior to the addition of compound. […] After six days in culture, the cells are fixed by the addition of cold trichloroacetic acid to a final concentration of 10% and protein levels are measured using the sulforhodamine B (SRB) colorimetric protein stain assay as previously described by Skehan, P., Storeng, R., Scudiero, D., Monks, A., McMahon, J., Vistica, D., Warren, J. T., Bokesch, H., Kenney, S., and Boyd, M. R., “New Colorimetric Assay For Anticancer-Drug Screening,” J. Natl Cancer Inst. […]
(§2) To show the effectiveness of this screening method on various forms of neoplasia, compounds were tested on numerous cell lines. […] The IC50 values were determined by the SRB assay. […]

[7] = system: cGMP PDE purified from human colon HT-29 cultured tumor cells; test: cGMP PDE inhibition assay; format: biochemical; set-up: PDE Inhibition: key to the marks not given beside the values
[8] = system: PDE4 purified from human colon HT-29 cultured tumor cells; test: PDE4 inhibition assay; format: biochemical; details: PDE4 from HT-29 cells
Protocol: (Thompson, W. J., Teraski, W. L., Epstein, P. M., Strada, S. J., Advances in Cyclic Nucleotide Research, 10:69-92, 1979, which is incorporated herein by reference). […] The mixture is incubated at 30° C. for 10 minutes with isolated PDE of this invention. Reactions are terminated, for example, by boiling the reaction mixture for 75 seconds. After cooling on ice, 100 μl of 0.5 mg/mL snake venom (O. Hannah venom available from Sigma) is added and incubated for 10 minutes at 30° C. This reaction is then terminated by the addition of an alcohol, e.g. 1 mL of 100% methanol. Assay samples are applied to 1 mL Dowex 1-X8 column; and washed with 1 mL of 100% methanol. The amount of radioactivity in the breakthrough and the wash from the column is combined and measured with a scintillation counter. The degree of phosphodiesterase inhibition is determined by calculating the amount of radioactivity in drug-treated reactions and comparing against a control sample (a reaction mixture lacking the tested compound but with drug solvent).

A-427, Lung = test: Growth inhibition, SRB assay, A-427; format: cell-based; details: Homo sapiens
Text: as §1, §2

COc1cc(/C=C2/C(C)=C(CC(=O)NCc3ccccc3)c3cc(F)ccc32)cc(OC)c1OC [Compound E, (Z)-5-Fluoro-2-methyl-1-(3,4,5-trimethoxybenzylidene)-3-indenylacetamide, N-benzyl]
Apoptosis [1]: ++++ | COX-I inhibition [2]: neither test compound B and E significantly inhibit COX-I | competition with cGMP (2 μM) in binding of GST-cGB-PDE5 ([3]; FIG. 24): None of the PDE5 inhibitors showed any competition | competitive (with cGMP) binding to PDE5 peak A [4]: does competitively (with cGMP) bind to PDE 5 | competitive (with cGMP) binding to PDE peak B [5]: competitively (with cGMP) binds to PDE peak B | Ratio (IC50 Peak A/Peak B) [5]: 1.0

CC1=C(CC(=O)O)c2cc(F)ccc2/C1=C\c1ccc([S+](C)[O-])cc1 (centres unmarked) [sulindac]
inhibition of premalignant lesions in mammary gland organ culture [6]: effectively inhibit the formation of premalignant lesions

CCCCOC1C2OP(=O)(O)OCC2OC1n1cnc2c(=O)[nH]c(N)nc21 (centres unmarked) [2′-O-butyl-cGMP]
competition with cGMP (2 μM) in binding of GST-cGB-PDE5 ([3]; FIG. 24): did not compete

O=c1ccn([C@@H]2O[C@@H]3COP(=O)(O)O[C@H]3[C@H]2O)c(=O)[nH]1 [cUMP]
competition with cGMP (2 μM) in binding of GST-cGB-PDE5 ([3]; FIG. 24): did not compete

CC1(C)C(=O)Nc2ccc(C3=NNC(=O)CC3)cc21 [Indolidan]
Ratio (IC50 Peak A/Peak B) [5]: <0.31

O=C([O-])C1CCN(c2nc(NCc3ccc4c(c3)OCO4)c3cc(Cl)ccc3n2)CC1.[Na+] [Compound E4021]
competition with cGMP (2 μM) in binding of GST-cGB-PDE5 ([3]; FIG. 24): None of the PDE5 inhibitors showed any competition

CCCCOC1C2OP(=O)(O)OCC2OC1n1cnc2c(N)ncnc21 (centres unmarked) [2′-O-butyl-cAMP]
competition with cGMP (2 μM) in binding of GST-cGB-PDE5 ([3]; FIG. 24): did not compete

CCCc1nn(C)c2c(=O)[nH]c(-c3cc(S(=O)(=O)N4CCN(C)CC4)ccc3OCC)nc12 [Sildenafil]
inhibition of activity of peak A [4]: inhibited activity of peak A

CCCOc1ccccc1-c1nc2nn[nH]c2c(=O)[nH]1 [Zaprinast]
competition with cGMP (2 μM) in binding of GST-cGB-PDE5 ([3]; FIG. 24): None of the PDE5 inhibitors showed any competition

COc1cc(C=C2C(C)=C(CC(=O)O)c3cc(F)ccc32)cc(OC)c1OC [Compound B, (Z)-5-Fluoro-2-methyl-1-(3,4,5-trimethoxybenzylidene)-3-acetic acid]
Apoptosis [1]: +++ | COX-I inhibition [2]: neither test compound B and E significantly inhibit COX-I | competition with cGMP (2 μM) in binding of GST-cGB-PDE5 ([3]; FIG. 24): None of the PDE5 inhibitors showed any competition

Nc1ccn([C@@H]2O[C@@H]3COP(=O)(O)O[C@H]3[C@H]2O)c(=O)n1 [cCMP]
competition with cGMP (2 μM) in binding of GST-cGB-PDE5 ([3]; FIG. 24): did not compete

O=c1[nH]cnc2c1ncn2[C@@H]1O[C@@H]2COP(=O)(O)O[C@H]2[C@H]1O [Cyclic IMP]
competition with cGMP (2 μM) in binding of GST-cGB-PDE5 ([3]; FIG. 24): can partially compete

COc1ccc(C2CNC(=O)C2)cc1OC1CCCC1 (centres unmarked) [Rolipram]
effect on cAMP levels (HT-29 cells): increased cAMP

CSc1ccc(/C=C2/C(C)=C(CC(=O)O)c3cc(F)ccc32)cc1 [Sulindac sulfide]
effect on cAMP levels (HT-29 cells): unaffected | EC50 (HT-29 cells; Homo sapiens, 0.5 h, read-out: EC50 for increase of cGMP levels, HT-29 cells treated 30 minutes): 7.3 µM | IC50 (HCT116, Colon): 45 µM | cGMP PDE inhibitory activity, % Inhibition at 10 μM ([7]; 10 μM): 97% | PDE Inhibition ([7]; qualitative activity profile): +++ | IC50 ([7]; read-out: IC50 for inhibition of cGMP PDE, cGMP PDE from HT-29 cells): 17 µM | Apoptosis [1]: +++ | COX Inhibition ([2]; qualitative activity profile): ++++ | inhibition at 100 µM ([2]; read-out: Cyclooxygenase inhibitory activity, % Inhibition at 100 μM): 97% | competition with cGMP (2 μM) in binding of GST-cGB-PDE5 ([3]; FIG. 24): None of the PDE5 inhibitors showed any competition | IC50 [8]: 41 µM | IC50 (A-427, Lung): 90 µM | inhibition of premalignant lesions in mammary gland organ culture [6]: inactive

Nc1nc2c(nc(Br)n2[C@@H]2O[C@@H]3COP(=O)(O)O[C@H]3[C@H]2O)c(=O)[nH]1 [Compound 8-bromo-cGMP, 8-bromo-cGMP]
competition with cGMP (2 μM) in binding of GST-cGB-PDE5 ([3]; FIG. 24): can partially compete

Nc1ncnc2c1ncn2[C@@H]1O[C@@H]2COP(=O)(O)O[C@H]2[C@H]1O [Cyclic AMP]
competition with cGMP (2 μM) in binding of GST-cGB-PDE5 [3]: did not compete

Source: patent US20040009464A1, “Methods for identifying compounds for inhibition of neoplastic lesions, and pharmacetical compositions containing such compounds” (priority 1998, published 2004)
